Counter-ions that a name gives are not always drawn.
System: MTT (mouse pheochromocytoma)
Assay: IC50 of cell viability (ATP content)
Conditions: (24 or 48 h)
Outline: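 MTT mouse pheochromocytoma cells in white 1536-well plates were treated for 24 or 48 hrs with library compounds at 8 final concentrations from 0.5 nM to 46 µM. ATP content was measured with CellTiter-Glo luminescence, using positive-control wells as 100% and DMSO wells as 0%. IC50 came from a four-parameter logistic fit.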

Row | SMILES | IC50 of cell viability
1 | C[C@]12CCC3C(CCC/4=C/C(=O)CCC34)C1CC[C@@]2(O)C#C (some centres not stated) [NORETHINDRONE] | > 46 µM
2 | CC(=O)OCC(=O)[C@@]1(O)[C@@H](C[C@H]2[C@@H]3CC\C4=C\C(=O)\C=C/[C@]4(C)[C@@]3(F)[C@@H](O)C[C@]12C)OC(C)=O [Triamcinolone diacetate] | > 46 µM
3 | CC(=O)[C@@H]1CC[C@@H]2[C@@H]3\C=C/C4=C/C(=O)CC[C@@]4(C)[C@H]3CC[C@@]12C [Dydrogesterone] | > 46 µM
4 | C[C@]12CC[C@H]3[C@@H](CCC/4=C/C(=O)CC[C@]34C)[C@@H]1CCC2=O [ANDROSTENEDIONE] | > 46 µM
5 | CCC(C)CCCCC(=O)N[C@@H](CC[NH3+])C(=O)N[C@H](C(=O)N[C@@H](CC[NH3+])C(=O)N[C@H]1CCNC(=O)C([C@@H](C)O)NC(=O)[C@@H](CCN)NC(=O)[C@H](CCN)NC(=O)[C@H](CC(C)C)NC(=O)[C@@H](CC(C)C)NC(=O)[C@H](CCN)NC1=O)[C@@H](C)O (some centres not stated) [Polymyxin E1] | > 46 µM
6 | CC(=O)NCCCCCC(=O)O [ACEXAMIC ACID] | > 46 µM
7 | O=C([O-])/C=C/C(O)c1ccc(Cl)cc1.[Na+] (configuration not stated) [NCS-356] | > 46 µM
8 | O=C(c1cc2ccccc2o1)N1CCN(Cc2ccccc2)CC1 [Befuralina] | > 46 µM
9 | Oc1cccc(-c2c3nc(c(-c4cccc(O)c4)c4ccc([nH]4)c(-c4cccc(O)c4)c4nc(c(-c5cccc(O)c5)c5ccc2[nH]5)CC4)C=C3)c1 [Temoporfin] | > 46 µM
10 | O=C(O)[C@H]1C[C@@H](CP(=O)(O)O)CCN1 | > 46 µM
11 | Nc1c2c(nc3ccccc13)CCCC2 [TACRINE] | > 46 µM
12 | C[C@@H](Cc1ccc(O)cc1)NC[C@@H](O)c1cc(O)cc(O)c1 [Fenoterol hydrobromide] | > 46 µM
13 | OCCN1CCN(CCCN2C3=C(C=CC=C3)\C=C/C4=C2C=CC=C4)CC1 [Opipramol HCl] | > 46 µM
14 | CCc1cc([S+](=O)([O-])[O][Na])c2cc(C(C)C)cccc1-2 [EGUALEN SODIUM] | > 46 µM
15 | CNC[C@H](O)c1ccc(O)c(O)c1 [EPINEPHRINE] | > 46 µM
16 | CCN(CC)N(O)N=O.CCNCC [2-(N,N-DIETHYLAMINO)DIAZENOLATE-2-OXIDE DIETHYLAMONIUM SALT] | > 46 µM
17 | CC1OC(OCC2OC(OC/3=C(/OC4=C(C(=CC(=C4)OCCO)O)C3=O)C5=CC=C(OCCO)C(=C5)OCCO)C(O)C(O)C2O)[C@@H](O)C(O)C1O (some centres not stated) [TROXERUTIN] | > 46 µM
18 | CCS(=O)(=O)C(C)(C)S(=O)(=O)CC [SULFONMETHANE] | > 46 µM
19 | O=C1/C(=C2/Nc3ccc(S(=O)(=O)[O-])cc3C2=O)Nc2ccc(S(=O)(=O)[O-])cc21 [Indigo carmine] | > 46 µM
20 | CC1(C)C(C(=O)[O-])N2C(=O)CC2[S+]1(=O)[O-] (configuration not stated) [Sulbactam] | > 46 µM
21 | COc1ccccc1OCC(O)CN1CCN(CC(=O)Nc2c(C)cccc2C)CC1 (configuration not stated) [RANOLAZINE] | > 46 µM
22 | CC1(C)CO[C@@H](CC(=O)O)CN1 | > 46 µM
23 | CNC(=O)c1ccccc1Sc1ccc2c(/C=C/c3ccccn3)n[nH]c2c1 [Axitinib] | > 46 µM
24 | CCN(CC)C(=O)Nc1ccc(OC[C@H](O)CNC(C)(C)C)c(C(C)=O)c1 [CELIPROLOL HYDROCHLORIDE] | > 46 µM
25 | NC(C(=O)O)c1ccc(O)cc1 (configuration not stated) [OXFENICINUM] | > 46 µM
26 | COC(=O)[C@H]1[C@H]2C[C@H]3c4[nH]c5ccccc5c4CCN3C[C@H]2CC[C@@H]1O [RAUWOLSCINE] | > 46 µM

Row | SMILES | IC50 of cell viability
27 | C[C@@]12CC(O)[C@]3(F)C(CCC/4=C/C(=O)/C=C\[C@@]34C)C1CC(O)[C@@]2(O)C(=O)CO (some centres not stated) [TRIAMCINOLONE] | > 46 µM
28 | C[C@@]12CC[C@@H]3c4ccc(O[S+](=O)([O-])O)cc4CC[C@H]3[C@H]1CCC2=O [Estropipate] | > 46 µM
29 | OC(=O)C1=CC=C2[NH]C=C(CCCCN3CC\C(=C/C3)C4=CC=CC=C4)C2=C1 [CARMOXIROLUM] | > 46 µM
30 | Nc1cccc2c1CN(C1CCC(=O)NC1=O)C2=O (configuration not stated) [LENALIDOMIDE] | > 46 µM
31 | CCSc1ccc2c(c1)N(CCCN1CCN(C)CC1)c1ccccc1S2.O=C(O)C[C@@H](O)C(=O)O.O=C(O)C[C@@H](O)C(=O)O [Thiethylperazine malate] | > 46 µM
32 | CCCCOC(=O)c1ccc(N)cc1 [BUTAMBEN] | > 46 µM
33 | Cn1c(=O)c2c(ncn2CCOC(=O)C(C)(C)Oc2ccc(Cl)cc2)n(C)c1=O [Theofibrate] | > 46 µM
34 | CC[C@H](OC(C)=O)C(C[C@H](C)NC)(c1ccccc1)c1ccccc1 | > 46 µM
35 | O=C1Nc2ccc(Cl)cc2C(c2ccccc2Cl)=NC1O (configuration not stated) [Lorazepam] | > 46 µM
36 | Nc1nc(NC2CC2)c2ncn([C@H]3C=C[C@@H](CO)C3)c2n1 [ABACAVIR SULFATE] | > 46 µM
37 | NC1=NC(=O)N2CC12 (configuration not stated) [IMEXON] | > 46 µM
38 | Cc1c(C)c2c(c(C)c1OC(=O)c1cccnc1)CC[C@@](C)(CCC[C@H](C)CCC[C@H](C)CCCC(C)C)O2 [TOCOPHEROL NICOTINATE] | > 46 µM
39 | CC1(C)CC/C(=C\c2ccc(Cl)cc2)C1(O)Cn1cncn1 (configuration not stated) [Triticonazole] | > 46 µM
40 | CCOC(=O)NC(C)(C)Cc1ccc(Cl)cc1 [Cloforex] | > 46 µM
41 | CC[C@H](O)C(C[C@H](C)N(C)C)(c1ccccc1)c1ccccc1 | > 46 µM
42 | O=P([O-])(O)C(Cl)(Cl)P(=O)([O-])O.[Na+].[Na+] [Clodronic acid] | > 46 µM
43 | NC(=O)Oc1ccc(Cc2ccccc2)cc1 [Difenano] | > 46 µM
44 | Cc1cc(C)c(/C=C2\C(=O)Nc3ccccc32)[nH]1 [SEMAXANIBUM] | > 46 µM
45 | COc1ccccc1OC[C@H](O)CO [Guaifenesin] | > 46 µM
46 | CCCC(C)C1(CC)C(=O)NC(=S)NC1=O (configuration not stated) [THIOPENTAL SODIUM] | > 46 µM
47 | O=C1c2ccccc2C(=O)c2c1ccc(O)c2O [ALIZARIN] | > 46 µM
48 | CCCN(CCC)C(=O)C(CCC(=O)OCCCN1CCN(CCOC(=O)Cc2c(C)n(C(=O)c3ccc(Cl)cc3)c3ccc(OC)cc23)CC1)NC(=O)c1ccccc1 (configuration not stated) [Proglumetacin maleate] | > 46 µM
49 | OC(COC1=CC=CC2=C1C(=O)\C=C(/O2)C(O)=O)COC3=CC=CC4=C3C(=O)\C=C(/O4)C(O)=O [Cromolyn sodium] | > 46 µM
50 | COc1ccc2c3c1OC1[C@H](O)CCC4[C@@H](C2)N(C)CC[C@]314 (some centres not stated) [Dihydroisocodeine] | > 46 µM
51 | Nc1ccc(/N=N/c2ccccc2)cc1 [4-Aminoazobenzene] | > 46 µM
52 | C=CC(=O)Nc1cc2c(Nc3ccc(F)c(Cl)c3)ncnc2cc1OCCCN1CCOCC1 [Canertinib] | > 46 µM
